From US4087421A, “Substituted benzodiazepines and method of use” (American Cyanamid Company, priority 1977, dated 1978)

Key:
Type in all cases: in vivo
[1] = Inhibition of tetrabenazine induced depression of exploratory behavior in mice; details: for Number Responded/Number Treated: intraperitoneally or orally, 1 h before tetrabenazine 30 mg/kg; for ED50: Mus musculus, calculated by method of Finney, dose column in mg/kg, read-out: ED50 (95% C.L.)
Description: Varying doses of the test compounds are administered intraperitoneally or orally to 5 mice one hour before the administration of tetrabenazine hexamate at an intraperitoneal dose of 30 mg/kg which is known to depress markedly the exploratory behavior of normal mice. Thirty minutes later the mice are tested for their exploratoy behavior. Individual mice are placed in the center of a horizontal disc. Inhibition of the depression induced by tetrabenazine is considered present if the mice perform one or more of the following actions within 10 seconds after being placed on the disc:
(1) Animals move to the edge of the disc and pear over the side.
(2) Animals move 180° in place.
(3) Animals display a head movement of 90° immediately followed by a head movement in the opposite direction of at least 45°.
Administration of the test compounds to additional groups of 5 mice is repeated, the numbers of individual animals showing an anti-depressant response (normal exploratory behavior) is recorded and the results are analyzed by the following scheme (statistically standardized; significant P = less than 0.05).
The results from several dose levels (acceptance in at least two sequential test procedures) are then used to establish the Range of Active Doses.

[2] = Prevention of reserpine-induced hypothermia in rats; details: for ED50: Rattus norvegicus, oral, dose column in mg/kg, read-out: ED50 (95% C.L.)
Description: Groups of 5 rats were treated orally with graded doses of the test compounds. One hour later the animals were treated with reserpine (solubilized in propylene glycol and citric acid) at a dose of 5 mg/kg intraperitoneally. Rectal temperatures were measured using a YSI Telethermometer. Temperatures were recorded just prior to treatment, one hour later just prior to reserpine administration and at hourly intervals following reserpine administration for 5 hours. […]

[3] = Enhancement of yohimbine lethality in mice; details: 25 mg/kg intraperitoneal, yohimbine 34 mg/kg
Description: The test compounds were administered intraperitoneally, at various dose levels, to groups of 10 mice. One hour later all mice received yohimbine at a dose (34 mg/kg) estimated to have a lethal effect in 4% of the mice. Deaths were recorded 18 to 24 hours later.

[4] = 5 mg/kg oral, 2 hours after reserpine
[5] = 5 mg/kg oral, 3 hours after reserpine
[6] = 5 mg/kg oral, 4 hours after reserpine
[7] = 5 mg/kg oral, 5 hours after reserpine
[8] = 10 mg/kg oral, 2 hours after reserpine
[9] = 10 mg/kg oral, 3 hours after reserpine
[10] = 10 mg/kg oral, 4 hours after reserpine
[11] = 10 mg/kg oral, 5 hours after reserpine
[12] = 20 mg/kg oral, 2 hours after reserpine
[13] = 20 mg/kg oral, 3 hours after reserpine
[14] = 20 mg/kg oral, 4 hours after reserpine
[15] = 20 mg/kg oral, 5 hours after reserpine

Structure (SMILES)	Number Responded/Number Treated ([1]; 1.56 mg/kg)	Number Responded/Number Treated ([1]; 3.13 mg/kg)	Number Responded/Number Treated ([1]; 6.25 mg/kg)	Number Responded/Number Treated ([1]; 12.5 mg/kg)	Number Responded/Number Treated ([1]; 25.0 mg/kg)	ED50 [1]	Percent of Animals Showing > Two Standard Deviations in Rectal Temperature Over Control Means [2, 4]	Percent of Animals Showing > Two Standard Deviations in Rectal Temperature Over Control Means [2, 5]	Percent of Animals Showing > Two Standard Deviations in Rectal Temperature Over Control Means [2, 6]	Percent of Animals Showing > Two Standard Deviations in Rectal Temperature Over Control Means [2, 7]	Percent of Animals Showing > Two Standard Deviations in Rectal Temperature Over Control Means [2, 8]	Percent of Animals Showing > Two Standard Deviations in Rectal Temperature Over Control Means [2, 9]	Percent of Animals Showing > Two Standard Deviations in Rectal Temperature Over Control Means [2, 10]	Percent of Animals Showing > Two Standard Deviations in Rectal Temperature Over Control Means [2, 11]	Percent of Animals Showing > Two Standard Deviations in Rectal Temperature Over Control Means [2, 12]	Percent of Animals Showing > Two Standard Deviations in Rectal Temperature Over Control Means [2, 13]	Percent of Animals Showing > Two Standard Deviations in Rectal Temperature Over Control Means [2, 14]	Percent of Animals Showing > Two Standard Deviations in Rectal Temperature Over Control Means [2, 15]	ED50 ([2]; 2 hours after reserpine)	ED50 ([2]; 3 hours after reserpine)	other results
CN1c2ccccc2N=C(N2CCN(CCO)CC2)c2cscc21 [4-(4-Methyl-4H-thieno[3,4-b][1,5]-benzodiazepin-10-yl)-1-piperazineethanol]	5/30	10/30	9/20	11/20	10/20	13 mg/kg	0%	0%	0%	0%	80%	80%	80%	80%	100%	80%	80%	40%	9.1 mg/kg	10.6 mg/kg	ED50 ([2]; 4 hours after reserpine): 10.6 mg/kg; ED50 ([2]; 5 hours after reserpine): 14.6 mg/kg
CCN1c2ccccc2N=C(N2CCN(C)CC2)c2cscc21 [4-Ethyl-10-(4-methyl-1-piperazinyl)-4H-thieno[3,4-b][1,5]benzodiazepine]		3/15	10/30	9/25	9/20	~37 mg/kg	0%	0%	0%	0%	60%	100%	60%	20%	80%	80%	100%	60%	11.6 mg/kg	8.7 mg/kg	ED50 ([2]; 4 hours after reserpine): 9.7 mg/kg; ED50 ([2]; 5 hours after reserpine): 16.9 mg/kg; Number Dead/Number Treated ([3]; 18 hours): 7/10; Number Dead/Number Treated ([3]; 24 hours): 8/10
CN1c2ccccc2N=C(N2CCNCC2)c2cscc21 [4-Methyl-10-(1-piperazinyl)-4H-thieno[3,4-b][1,5]benzodiazepine]	5/30	10/30	9/20	11/20	10/20	13 mg/kg															
